# Results: US3998795A, “(Acyl-D-α-amino acid-gly-gly-tyr-ala)^1 -somatostatin” (American Home Products Corporation, priority 1975, dated 1976)
# Test system: growth hormone
# Assay: In vivo growth hormone release inhibition in Nembutal-treated rats, plasma growth hormone by radioimmunoassay
# Settings: rats 200-250 g, Nembutal 50 mg/kg i.p.; after 5 min octadecapeptide 1000 micrograms/kg s.c.; blood sampled 15 min after administration; control 236 ± 30; p<0.01
# Protocol: The in vivo activity of the octadecapeptides of this invention was established with (CH3 CO-D-Ala-Gly-Gly-L-Tyr-L-Ala)^1 -Somatostatin as a representative member of the octadecapeptides of this invention by injecting Nembutal intraperitoneally into rats weighing between 200 and 250 grams in an amount of 50 milligrams per kilogram body weight. After five minutes, the octadecapeptide was administered to the rats, subcutaneously, at a dose of 1000 micrograms per kilogram body weight. The rats blood was sampled 15 minutes after administration of the octadecapeptide and the amount of growth hormone present in the plasma was determined by radioimmunoassay. The octadecapeptide afforded a blood plasma concentration of growth hormone in the test animals of 74 ± 16 nanograms per milliliter as opposed to the concentration of growth hormone in the control animals of 236 ± 30 nanograms per milliliter, at a statistical certainty of p<0.01.
compound,measurement,value
CC(=O)N[C@H](C)C(=O)NCC(=O)NCC(=O)N[C@@H](Cc1ccc(O)cc1)C(=O)N[C@@H](C)C(=O)NCC(=O)N[C@H]1CSSC[C@@H](C(=O)O)NC(=O)[C@H](CO)NC(=O)[C@H]([C@@H](C)O)NC(=O)[C@H](Cc2ccccc2)NC(=O)[C@H]([C@@H](C)O)NC(=O)[C@H](CCCCN)NC(=O)[C@H](Cc2c[nH]c3ccccc23)NC(=O)[C@H](Cc2ccccc2)NC(=O)[C@H](Cc2ccccc2)NC(=O)[C@H](CC(N)=O)NC(=O)[C@H](CCCCN)NC1=O [N-α-Acetyl-D-alanyl-glycyl-glycyl-L-tyrosyl-L-alanyl-glycyl-L-cysteinyl-L-lysyl-L-asparaginyl-L-phenylalanyl-L-phenylalanyl-L-tryptophyl-L-lysyl-L-threonyl-L-phenylalanyl-L-threonyl-L-seryl-L-cysteine (7-18 disulfide) diacetate],blood plasma concentration of growth hormone,74 ± 16 nanograms per milliliter
